Experimental data reported in patent US7229987B2, “Multicyclic compounds for use as melanin concentrating hormone antagonists in the treatment of obesity and diabetes” (Eli Lilly and Company, priority 2002, dated 2007).
Where a name gives a salt, the structure may show the parent alone.

Q: For `CN(C)CCCOc1ccc(-c2nnc(CCc3ccc4ccccc4c3)o2)cc1` (as salt: hydrochloride) [Example 205, Dimethyl-{3-[4-(5-naphthalene-2-ylethyl-[1,3,4]oxadiazol-2-yl)phenoxy]propyl}amine], which melting point is on record?
A: Its melting point is 208 to 210 °C.

Q: With `c1csc(SCc2nnc(-c3ccc(OCCCN4CCCCC4)cc3)o2)n1` (as salt: hydrochloride) [Example 226, 1-(3-{4-[5-(thiazol-2-ylsulfanylmethyl)-[1,3,4]oxadiazol-2-yl]phenoxy}propyl)piperdine] as the compound, how does the melting point read?
A: Its melting point is 174 to 176 °C.

Q: Which melting point does the source give for `COCCSCc1nnc(-c2ccc(OCCCN(C)C)cc2)o1` (as salt: maleate) [Example 281, (3-{4-[5-(2-methoxy-ethylsulfanylmethyl)-[1,3,4]oxadiazol-2-yl]-phenoxy}-propyl)-dimethyl-amine] here?
A: The melting point was 97.5 to 99 °C.

Q: With `CN(C)CCCOc1ccc(-c2nnc(CSCCOCc3ccccc3)o2)cc1` (as salt: maleate) [Example 282, (3-{4-[5-(2-phenylmethoxy-ethylsulfanylmethyl)-[1,3,4]oxadiazol-2-yl]-phenoxy}-propyl)-dimethyl-amine] as the compound, how does the melting point read?
A: The melting point was 71.5 to 72 °C.

Q: For `CN(C)CCCOc1ccc(-c2nnc(CCOCCOc3ccccc3)o2)cc1` (as salt: oxalate) [Example 215, Dimethyl-[3-(4-{5-[2-(2-phenxoyethoxy)ethyl]-[1,3,4]oxadiazol-2-yl}phenoxy)propyl]amine], which melting point is on record?
A: The melting point was 116 to 118 °C.

Q: Which melting point does the source give for `CN(C)CCCNC(=O)c1ccc(-c2nnc(CSCCOc3ccc(Cl)cc3Cl)o2)cc1` [Example 44, 4-{5-[2-(2,4-dichlorophenoxy)-ethylsulfanylmethyl]-[1,3,4]-oxadiazol-2-yl}-N-(3-dimethylaminopropyl)-benzamide] here?
A: The melting point was 140 to 141 °C.

Q: Which melting point does the source give for `CN(C)CCCNC(=O)c1ccc(-c2nnc(CSCCCOc3ccccc3)o2)cc1` [Example 47, N-(3-dimethylaminopropyl)-4-[5-(3-phenoxypropylsulfanylmethyl)-[1,3,4]oxadiazol-2-yl]-benzamide] here?
A: The melting point was 77 to 80 °C.

Q: Which melting point does the source give for `CN(C)CCCNC(=O)c1ccc(-c2nnc(CSCCCCOc3ccccc3)o2)cc1` [Example 48, N-(3-dimethylaminopropyl)-4-[5-(4-phenoxybutylsulfanylmethyl)-[1,3,4]oxadiazol-2-yl]-benzamide] here?
A: The melting point was 87 to 93 °C.

Q: For `CN(C)CCCOc1ccc(-c2nnc(CSCCCOc3ccccc3)o2)cc1.O=C(O)C(=O)O` [Example 49, dimethyl-(3-{4-[5-(3-phenoxypropylsulfanylmethyl)-[1,3,4]oxadiazol-2-yl]-phenoxy}-propyl)-amine, oxalic acid salt], which melting point is on record?
A: Its melting point is 131 to 133 °C.

Q: With `CN(C)CCCOc1ccc(-c2nnc(CSCCCCOc3ccccc3)o2)cc1` [Example 50, dimethyl-(3-{4-[5-(4-phenoxybutylsulfanylmethyl)-[1,3,4]oxadiazol-2-yl]-phenoxy}-propyl)-amine] as the compound, how does the melting point read?
A: Its melting point is 69 to 73 °C.

Q: With `CN(C)CCNC(=O)c1ccc(-c2nnc(CSCCOc3ccccc3)o2)cc1` [Example 54, N-(2-dimethylaminoethyl)-4-[5-(2-phenoxyethylsulfanylmethyl)-[1,3,4]oxadiazol-2-yl]-benzamide] as the compound, how does the melting point read?
A: Its melting point is 94 to 100 °C.

Q: With `CN(C)CCCCNC(=O)c1ccc(-c2nnc(CSCCOc3ccccc3)o2)cc1` [Example 55, N-(4-dimethylaminobutyl)-4-[5-(2-phenoxyethylsulfanylmethyl)-[1,3,4]oxadiazol-2-yl]-benzamide] as the compound, how does the melting point read?
A: The melting point was 71 to 78 °C.

Q: For `CN(C)CCCCCNC(=O)c1ccc(-c2nnc(CSCCOc3ccccc3)o2)cc1` [Example 56, N-(5-dimethylaminopentyl)-4-[5-(2-phenoxyethylsulfanylmethyl)-[1,3,4]oxadiazol-2-yl]-benzamide], which melting point is on record?
A: The melting point was 83 to 89 °C.

Q: With `CN(C)CCCCCCNC(=O)c1ccc(-c2nnc(CSCCOc3ccccc3)o2)cc1` [Example 57, N-(6-dimethylaminohexyl)-4-[5-(2-phenoxyethylsulfanylmethyl)-[1,3,4]oxadiazol-2-yl]-benzamide] as the compound, how does the melting point read?
A: The melting point was 86 to 93 °C.

Q: With `CN(C)CCCOc1ccc(-c2nnc(-c3ccc(-c4ccccc4)cc3)o2)cc1` [Example 58, {3-[4-(5-biphenyl-4-yl-[1,3,4]oxadiazol-2-yl)-phenoxy]-propyl}-dimethylamine] as the compound, how does the melting point read?
A: The melting point was 130 to 132 °C.

Q: With `CN(C)CCCOc1ccc(-c2nnc(CSCCOc3ccccc3)s2)cc1` [Example 59, Dimethyl-(3-{4-[5-(2-phenoxyethylsulfanylmethyl)-[1,3,4]thiadiazol-2-yl]-phenoxy}-propyl)-amine] as the compound, how does the melting point read?
A: The melting point was 72 to 73 °C.

Q: With `CN(C)CCNC(=O)c1cccc(-c2nnc(CSCCOc3ccccc3)o2)c1` [Example 60, N-(2-Dimethylamino-ethyl)3-[5-(2-phenoxy-ethylsulfanylmethyl)-[1,3,4]oxadiazol-2-yl]-benzamide] as the compound, how does the melting point read?
A: The melting point was 64 °C.

Q: For `CN(C)CCCCNC(=O)c1cccc(-c2nnc(CSCCOc3ccccc3)o2)c1` [Example 61, N-(4-dimethylamino-butyl)-3-[5-(2-phenoxy-ethylsulfanylmethyl)-[1,3,4]oxadiazol-2-yl]-benzamide], which melting point is on record?
A: Its melting point is 38 to 42 °C.

Q: For `CN(C)CCCNC(=O)c1cccc(-c2nnc(CSCCOc3ccccc3)o2)c1` [Example 62, N-(3-dimethylamino-propyl)-3-[5-(2-phenoxy-ethylsulfanylmethyl)-[1,3,4]oxadiazol-2-yl]-benzamide], which melting point is on record?
A: The melting point was 88 to 90 °C.

Q: Which melting point does the source give for `CN(C)CCCCNC(=O)c1ccccc1-c1nnc(CSCCOc2ccccc2)o1` [Example 63, N-(4-dimethylamino-butyl)-2-[5-(2-phenoxy-ethylsulfanylmethyl)-[1,3,4]oxadiazol-2-yl]-benzamide] here?
A: Its melting point is 62 to 65 °C.

Q: With `CN(C)CCNC(=O)c1ccccc1-c1nnc(CSCCOc2ccccc2)o1` [Example 64, N-(2-dimethylamino-ethyl)-2-[5-(2-phenoxy-ethylsulfanylmethyl)-[1,3,4]oxadiazol-2-yl]-benzamide] as the compound, how does the melting point read?
A: Its melting point is 80 to 85 °C.

Q: For `CN(C)CCCNC(=O)c1ccccc1-c1nnc(CSCCOc2ccccc2)o1` [Example 65, N-(3-dimethylamino-propyl)-2-[5-(2-phenoxy-ethylsulfanylmethyl)-[1,3,4]oxadiazol-2-yl]-benzamide], which melting point is on record?
A: The melting point was 60 to 65 °C.

Q: Which melting point does the source give for `CN(C)CCOc1ccc(-c2nnc(CSCCOc3ccccc3)o2)cc1` [Example 66, dimethyl-(2-{4-[5-(2-phenoxy-ethylsulfanylmethyl)-[1,3,4]oxadiazol-2-yl]-phenoxy}-ethyl)-amine] here?
A: Its melting point is 62 to 64 °C.

Q: Which melting point does the source give for `CN(C)CCCOc1ccc(-c2nnc(CSCCOc3ccccc3)o2)cc1` [Example 67, dimethyl-(3-{4-[5-(2-phenoxy-ethylsulfanylmethyl)-[1,3,4]oxadiazol-2-yl]-phenoxy}-propyl)-amine] here?
A: The melting point was 70 °C.

Q: For `CN(C)CCCCOc1ccc(-c2nnc(CSCCOc3ccccc3)o2)cc1` [Example 68, dimethyl-(4-{4-[5-(2-phenoxy-ethylsulfanylmethyl)-[1,3,4]oxadiazol-2-yl]-phenoxy}-butyl)-amine], which melting point is on record?
A: Its melting point is 62 to 63 °C.

Q: For `CN(C)CCCCCOc1ccc(-c2nnc(CSCCOc3ccccc3)o2)cc1` [Example 69, dimethyl-(5-{4-[5-(2-phenoxy-ethylsulfanylmethyl)-[1,3,4]oxadiazol-2-yl]-phenoxy}-pentyl)-amine], which melting point is on record?
A: Its melting point is 51 to 54 °C.
